Patent US8669253B2, “Methods for treating glaucoma and macular degeneration” (Duke University, priority 2006, dated 2014)
Several values for one entry are separate records, joined by “and”; a condition that tells them apart may be missing. Identical values can stand only once. Entries after “also recorded” stand apart in the source; their conditions may differ. Blank lines part the entries; values can stand above or below the molecule they belong to.

Assays:
MDA-MB-231 cells [1] = assay: Thrombin-induced calcium mobilization (Fura-2); assay type: cell-based; settings: 5 μM, 24 h
Description: For the experiments assessing thrombin-induced calcium flux, MDA-MB-231 were plated on glass coverslips and treated similarly to that described for the thrombin rounding experiments. Calcium flux was measured 24 h after withdrawal of serum and addition of inhibitors using the calcium-sensitive dye Fura 2-AM (Molecular Probes Inc)(32). MDA-MB-231 cells were dye loaded for 1 h with 2.5 μM Fura-2 AM in Hanks balanced salt solution (HBSS, supplemented with 10 mM glucose and 0.1% BSA). After dye loading, the coverslips were placed in a temperature controlled recording chamber and superfused with Hanks solution. Cells were excited alternately at 340 and 380 nm and fluorescence emission at 510 nm was measured every four sec during the course of each experiment. After baseline recording for 2 min, thrombin (1 U/mL) was superfused into the bath chamber for 1 min (˜20 mL), followed by washout. Data is presented after baseline subtraction to show thrombin dependent calcium flux. Fluorescence measurements were acquired using a DeltaScan Illumination System (Photon Technology International (PTI), South Brunswick, N.J.) running on FELIX 1.4 software.

[2] = system: myosin light chain (MLC) phosphorylation in porcine primary TM cells; assay: Myosin light chain phosphorylation in TM cells; assay type: cell-based; settings: 6 hours, 10% serum
Description: (§1) Methods: A selective inhibitor of GGTase-I (GGTI-DU40) was tested in this study to investigate its effects on actin cytosketal integrity, cell adhesions, cell-cell junctions, myosin II phosphosphorylation, and membrane localization of Rho, Rap and G-beta/gamma in trabecular meshwork (TM) cells, using immunofluorescence detection and immunobloting analysis. The effects of GGTI-DU40 on aqueous humor outflow were determined using organ cultured, perfused anterior segments of porcine eyes.
Porcine primary TM cells were treated with GGTI compounds for 6 hours in the presence of 10% serum and the cell lysates were analyzed for the changes in myosin light chain (MLC) phosphorylation using phosphospecific-anti-MLC antibody.

MDA-MB-231 cells [3] = assay: Receptor independent cell rounding by Gα12QL expression; assay type: cell-based
Description: (§2) Assessment of receptor independent cell rounding was accomplished using adenovirus expressing the activated mutant of Gα12, Gα12QL (31). MDA-MB-231 cells were plated onto glass-bottom microwell dishes at 60% confluence and grown for 18-24 h in the presence of serum. Cells were then washed once with PBS and media replaced with serum-free media (DMEM) including any indicated compounds and incubated 6 h before addition of recombinant adenovirus. Following an additional 12 h incubation, cells were imaged using brightfield and GFP fluorescence microscopy. Cell images were acquired using an Eclipse TE300 microscope (Nikon) using either an oil immersion lens at 600× (for fluorescence of MDCK cells) or a plan fluor lens at 200× (for MBA-321 cells) and a SPOT digital camera (Diagnostic Instruments, Sterling Heights, Mich.) employing SPOT RT 3.02 software.

[4] = system: organ cultured anterior segments of porcine eyes; assay: Aqueous humor outflow facility in organ cultured, perfused anterior segments; settings: 10 μM or 25 μM, perfused for 24 to 96 hours, n=8, change from baseline facility
Description: as §1
GGTI-396586 was perfused in organ cultured anterior segments of enucleated porcine eyes at a constant flow at 37° C. Changes in aqueous humor outflow facility were determined. Values are expressed as percent change in outflow facility from baseline facility.

[5] = system: GFP-Ras-CVLL in MDCK cells; assay: Localization of GFP-Ras-CVLL in MDCK cells; assay type: cell-based; settings: for localization of Ras-CVLL: 20 μM, 24 h
Description: (§3) MDCK cells stably expressing GFP-H-Ras were a gift from Mark Philips (New York University School of Medicine). Ras-CVLL was cloned into pEGFP (Clontech) and used to transfect MDCK cells. Stable clones were then selected using […] Geneticin and expression confirmed by analysis of GFP expression as visualized by fluorescence microscopy. MDCK cells were always cultured as a monolayer in DMEM with 10% FBS. For drug treatment experiments, cells were plated onto glass-bottom microwell dishes (MatTek Corp, Ashland, Mass.) and experiments initiated approximately 24 h after cells reached confluence. All compounds tested were dissolved in DMSO and added to cells at a final DMSO concentration of 0.02%.
as §2

GGTase-I = target: T1, GGTase-I (Homo sapiens, UniProt P53609); assay: GGTase-I enzyme assay (3H-GGPP incorporation into Ras-CVLL); assay type: biochemical, mammalian
T1 construct: made in house; host or cells: Sf9 cells
Description: (§4) FTase and GGTase-I activities were determined by following incorporation of radiolabeled isoprenoid from ^3H-FPP and ^3H-GGPP into Ras proteins as described previously (28). Briefly, purified mammalian FTase or GGTase-I (50 ng, expressed in Sf9 cells) (29, 30) were used to initiate reactions containing 0.5 μM FPP or GGPP, respectively and 1 μM of the appropriate purified His-tagged Ras substrates (H-Ras for FTase; Ras-CVLL for GGTase-I). Where indicated in the appropriate Figure legend, inhibitors were added at the indicated concentrations. Final DMSO concentration was 2% for all samples. Reactions were carried out for 10 min at 30° C. before precipitation and product determination. Kinetic assays in which GGPP concentration was varied employed 5 ng GGTase-I, and reactions were carried out for five min to prevent GGTase-I concentration from exceeding GGPP concentration.
Graphing and curve fitting were performed using Prism (GraphPad, SanDiego Calif.). Substrate-velocity curves were fit to the Michaelis-Menten equation, while double-reciprocal plots were fit using linear regression. The Ki for GGTI-DU40 was calculated using nonlinear regression and shared parameter curve fitting for all inhibitor concentrations, the velocity equation used was v=Vmax[S]/(Km(1+([I]/Ki))+[S]).

[6] = system: Rho, Rap and G-beta/gamma in trabecular meshwork (TM) cells; assay: Membrane localization of Rho, Rap and G-beta/gamma in TM cells; assay type: cell-based, porcine; settings: drug-treated TM cells
Description: as §1

GFP-H-Ras in MDCK cells = assay: Localization of GFP-H-Ras in MDCK cells; assay type: cell-based; settings: 20 μM, 24 h
Description: as §3
as §2, with “Cells were then washed once with PBS and media replaced with serum-free media (DMEM) including any indicated compounds and incubated 6 h before addition of recombinant adenovirus.” left out

[7] = system: Rap1 prenylation in MDA-MB-231 cells; assay: Unprenylated Rap1 analysis (immunoblot); assay type: cell-based; settings: 24 h
Description: To measure levels of unprenylated Rap1 in cells, whole cell lysates of MDA-MB-231 cells (prepared identically to Gβγ partitioning above, 75 ug) were mixed with Laemmli loading buffer and boiled. Samples were then separated by electrophoresis on denaturing 4-20% polyacrylamide gels and proteins transferred to nitrocellulose membranes for immunoblotting with antisera specific for the unprenylated form of Rap1 (Santa Cruz, sc-1482, goat). Sample loading was verified by reprobing blots with antisera for total Rap1 (Santa Cruz, sc-65, rabbit).

[8] = system: porcine TM primary cell cultures; assay: TM cell morphology, actin cytoskeleton and focal adhesions; assay type: cell-based; settings: 5 to 40 μM, 6 hours, 10% serum
Description: as §1
The porcine TM primary cell cultures were treated with GGTI compounds in the presence of 10% serum for 6 hours and recorded for the changes in cell morphology (phase contrast microscope), actin cytoskeletal organization (phalloidin staining) and focal adhesions (vinculin staining).

[9] = target: T2, GGTase-II (Rab geranylgeranyltransferase) (Bos taurus, UniProt Q5E9B3); assay: GGTase-II activity assay (bovine brain cytosol, Rab5a substrate); assay type: biochemical; settings: concentration range tested
T2 construct: bovine brain cytosol (200 μg protein) as the enzyme source; from tissue; host or cells: bovine brain cytosol
T2 sequence (Q5E9B3 1-331): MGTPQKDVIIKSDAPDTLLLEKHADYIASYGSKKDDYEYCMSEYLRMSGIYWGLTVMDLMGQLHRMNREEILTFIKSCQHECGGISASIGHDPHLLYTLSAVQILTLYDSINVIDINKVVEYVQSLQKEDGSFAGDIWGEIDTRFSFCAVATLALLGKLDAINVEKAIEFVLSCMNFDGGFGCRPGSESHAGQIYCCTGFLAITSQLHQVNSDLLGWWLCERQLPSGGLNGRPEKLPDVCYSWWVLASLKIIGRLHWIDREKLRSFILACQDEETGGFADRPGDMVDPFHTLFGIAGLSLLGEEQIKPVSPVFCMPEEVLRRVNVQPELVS
Description: GGTase-II activity was measured used bovine brain cytosol (200 μg protein) as the enzyme source and purified GST-tagged Rab5a as the protein substrate. The pGEX-Rab5a construct was a gift from Adrienne Cox (University of North Carolina). The assay was performed identically to that described above for the CaaX prenyltransferases except for the enzyme source and protein substrate and that the reaction time was increased to for 30 min.

Gβγ in MDA-MB-231 cells = assay: Gβγ membrane partitioning; assay type: cell-based; settings: 24 h
Description: MDA-MB-231 cells were grown in 10 cm dishes and treated exactly as in the thrombin cell rounding assay. Following drug treatment in serum free media, cells were harvested and lysed using ice cold hypotonic lysis buffer (70 mM HEPES pH 7.4, 2 mM EDTA, 1 mM DTT, and protease inhibitors). Following sonication, the whole cell lysate (75 μg protein) was centrifuged at 100,000×g for 45 min. Both the supernatant (S100) and pellet (P100) fractions were processed on 4-20% SDS-polyacrylamide gels and proteins transferred to nitrocellulose membranes for immunoblot analysis.

[10] = system: Rho association with RhoGDI in MDA-MB-231 cells; assay: RhoGDI-Rho interaction assay (GST-RhoGDI pull-down); assay type: cell-based; settings: 24 h, GGTI-DU40 5 μM, FTI 20 μM
Description: The interaction of GST-RhoGDI with endogenous Rho was assessed by protein interaction experiments. RhoGDI was generated as a glutathione-S-transferase fusion protein using a construct provided by Gary Bokoch (Scripps). The GST-RhoGDI fusion protein was incubated with treated MDA-MB-231 cell lysates (prepared identically to Gβγ partitioning above) for 1 hr at 4° C. in a total volume of 200 μl. Glutathione-sepharose was added and the mixture rotated at 4° C. for 30 min after which the affinity matrix was pelleted and washed three times with 500 μl of incubation buffer (70 mM HEPES, pH 7.5, 2 mM EDTA, 1 mM DTT, 150 mM NaCl, 0.1% Tween, 100 μM GDP, 2 mM MgCl2). Proteins retained on the matrix were solubilized in 2× Laemmli loading buffer and separated by electrophoresis on denaturing, 4-20% polyacrylamide gels. Proteins were transferred to nitrocellulose membranes for immunoblotting with an anti-RhoA antibody (Santa Cruz, sc-179).

Icmt = target: T3, Icmt (Homo sapiens, UniProt O60725); assay: Icmt assay; assay type: biochemical; settings: concentration range tested
T3 construct: made in house; host or cells: Sf9 (membrane preparation)
Description: Icmt assays were performed as described previously (27). Briefly, reactions were performed using biotin-S-famsyl-L-cysteine (4 μM) as a substrate and ^3H-AdoMet (5 μM, 7.5 Ci/mmol) as a methyl donor. Reactions were initiated by the addition of Sf9 membranes containing recombinant human Icmt (2 μg totoal protein) in the presence and absence of inhibitors. Reactions were carried out at room temperature for 20 min, and product formation determined.

MDA-MB-231 cells [11] = assay: Thrombin-induced cell rounding; assay type: cell-based; settings: 24 h pretreatment, GGTI-DU40 5 μM, SN-DU40 and FTI 20 μM, thrombin 20 min
Description: For the experiments assessing thrombin effects on cell morphology, MDA-MB-231 cells were plated onto glass-bottom microwell dishes at 10-20% confluence and grown for 18-24 h in the presence of serum. Cells were then washed once with PBS and media replaced with serum-free media (DMEM) including indicated compounds and incubated an additional 24 h. Cells were then imaged, treated with thrombin (1 U/mL for 20 min), and imaged again.

FTase = target: T4, FTase (Homo sapiens, UniProt P49356); assay: FTase enzyme assay (3H-FPP incorporation into H-Ras); assay type: biochemical, mammalian
T4 construct: made in house; host or cells: Sf9 cells
Description: as §4

T3 sequence (O60725 whole entry): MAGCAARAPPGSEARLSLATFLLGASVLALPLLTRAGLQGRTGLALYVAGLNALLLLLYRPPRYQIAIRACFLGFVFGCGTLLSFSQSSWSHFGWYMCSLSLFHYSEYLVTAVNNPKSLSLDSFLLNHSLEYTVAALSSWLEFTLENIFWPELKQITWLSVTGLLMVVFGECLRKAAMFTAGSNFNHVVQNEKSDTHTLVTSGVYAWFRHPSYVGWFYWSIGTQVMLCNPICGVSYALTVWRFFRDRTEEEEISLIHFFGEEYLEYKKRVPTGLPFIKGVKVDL

- FTase/GGTase-I selectivity ratio (GGTase-I): > 250
- mode of inhibition with respect to the protein substrate (GGTase-I; GGPP fixed, Ras-CVLL varied, 2-20 nM inhibitor): competitive inhibitor
- mode of inhibition with respect to GGPP (GGTase-I; Ras-CVLL fixed, GGPP varied, 2-20 nM inhibitor): uncompetitive inhibitor
- time-dependent inhibition of GGTase-I (GGTase-I; data not shown): no such behavior was observed
- Ki (GGTase-I; protein substrate competition data, nonlinear regression, read-out: Ki for GGTase-I inhibition): < 1 nM and 0.78 nM and 0.8 nM
- IC50 (GGTase-I; purified GGTase-I): 8.24 nM
- activity against GGTase-II [9]: no detectable activity
- activity against Icmt methyltransferase (Icmt): no detectable activity
- IC50 (FTase): > 2000 nM
Structure (SMILES): CSCCc1c(-c2cccnc2)nn(-c2ccc(Cl)c(Cl)c2)c1OCCCC(=O)N[C@@H](Cc1ccccc1)C(N)=O [GGTI-DU40, N—[(S)-1-Carbamoyl-2-phenylethyl]-4-[2-(3,4-dichlorophenyl)-4-(2-methylsulfanylethyl)-5-pyridin-3-yl-2-H-pyrazol-3-yloxy]butyramide]
- ability of thrombin to elicit calcium mobilization (MDA-MB-231 cells [1]): unaffected
- total calcium flux versus control (MDA-MB-231 cells [1]; integration of time with fluorescence): no statistical difference
- myosin light chain phosphorylation [2]: decreased significantly; also recorded: significantly reduced
- rounding of cells elicited by expression of Gα12QL (MDA-MB-231 cells [3]): blocked
- increase in aqueous outflow facility [4]: 30%
- localization of Ras-CVLL [5]: complete mislocalization
- lowest inhibitor concentration at which Ras-CVLL mislocalization could be detected ([5]; data not shown): 2 µM
- membrane localization of Rho, Rap and G-beta/gamma [6]: impaired
- localization of H-Ras (GFP-H-Ras in MDCK cells): without an effect
- level of unmodified (unprenylated) Rap1 [7]: dose dependent increase
- actin stress fibers and focal adhesions [8]: reversible decreases
- changes in TM cell morphology [8]: dose dependent
- membrane-associated Gβγ (Gβγ in MDA-MB-231 cells): partial loss
- ability of Rho proteins to associate with RhoGDI [10]: almost complete loss
- thrombin-stimulated cell rounding (MDA-MB-231 cells [11]): dramatically inhibited

Structure (SMILES): CC[C@H](C)[C@@H](CO[C@@H](Cc1ccccc1)C(=O)N[C@@H](CCS(C)(=O)=O)C(=O)OC(C)C)NC[C@@H](N)CS [L-744,832, reference compound]
- localization of Ras-CVLL [5]: no detectable mislocalization
- localization of H-Ras (GFP-H-Ras in MDCK cells): almost complete mislocalization
- level of unmodified (unprenylated) Rap1 [7]: no effect
- ability of Rho proteins to associate with RhoGDI [10]: no effect
- thrombin-stimulated cell rounding (MDA-MB-231 cells [11]): normal rounding
